Values quoted from earlier work, collected in patent US10653683B2, “Tiotropium inhalation solution for nebulization” (GLENMARK SPECIALTY S.A., priority 2016, dated 2020).

Assays:
[1] = relative to histamine

Row | Compound | Solubility in methanol (methanol) | Solubility in water (water) | Bronchoconstrictor properties, times less potent than histamine [1]
1 | C[N+]1(C)C2CC(OC(=O)C(O)(c3cccs3)c3cccs3)CC1C1OC12 (stereo not drawn) [Tiotropium bromide monohydrate, (1α, 2ß, 4ß, 5α, 7ß)-7-[(hydroxydi-2-thienylacetyl)oxy]-9,9-dimethyl-3-oxa-9-azoniatricyclo [3.3.1.02, 4] nonane bromide monohydrate] | soluble | sparingly soluble | –
2 | benzalkonium chloride | – | – | 7.4 times
